Measurements taken from patent US7759346B2, “[[2-(amino-3,4-dioxo-1-cyclobuten-1-yl)amino]alkyl]-acid derivatives for the treatment of pain” (priority 2001, dated 2010).
Read-outs that look alike come from different tables or passages of the source.

Columns and labels:
Spraque-Dawley rats [1] = assay: Warm-water tail withdrawal combination studies with morphine; assay type: in vivo, rat; conditions: 30 min before testing
Protocol: (§1) The terminal 10 cm of the tail was placed into a thermos bottle containing water warmed to 38, 42, 46, 50, 54, or 58° C. The latency in seconds for the animal to remove the tail from the water was used as a measure of nociception.
Combination compound studies. […] Compounds were administered IP at the same time 30 min before testing.
(§2) Test Method 1 Data Analysis—The temperature that produced a half-maximal increase in the tail-withdrawal latency (i.e., T10) was calculated from each temperature-effect curve. The T10 was determined by interpolation from a line drawn between the point above and the point below 10 sec on the temperature-effect curve. For these studies, thermal hypersensitivity was defined as a leftward shift in the temperature-effect curve and a decrease in the T10 value. Reversal of thermal hypersensitivity was defined as a return to baseline of the temperature-effect curve and the T10 value and was calculated according to the following equation: […]

Spraque-Dawley rats [2] = assay type: in vivo, rat
Protocol: as §1
(§3) Following the assessment of baseline thermal sensitivity, thermal hypersensitivity was produced by a 50 μL injection of 0.1 mg prostaglandin E2 (PGE2) into the terminal 1 cm of the tail. Temperature-effect curves were generated before (baseline) and after (15, 30, 60, 90 and 120 min) the PGE2 injection.
Compounds were administered IP at the same time as PGE2, which was administered 30 min before testing.
as §2

Spraque-Dawley rats [3] = assay: Prostaglandin E2-induced thermal hypersensitivity, warm-water tail withdrawal, single compound studies; assay type: in vivo, rat; conditions: for % MPE (reversal of PGE2-induced thermal hypersensitivity): given 30 min before PGE2
Protocol: Ketamine and dizocilpine are high affinity use-dependent NMDA receptor channel blockers, while memantine is a moderate affinity use-dependent NMDA receptor channel blocker. CGS-19755 is a competitive NMDA antagonist and ifenprodil is a […] polyamine antagonist. Test Method 1: Prostaglandin E2-Induced Thermal Hypersensitivity.
as §1, §3
Single compound studies. The ability of drugs to reverse PGE2-induced thermal hypersensitivity was assessed using a single dose time-course procedure. Under this procedure, a single dose of the compound to be tested was administered intraperitoneally (IP), orally (PO) or intranasally (IN) 30 min before the injection of PGE2. […] sensitivity was assessed 30 min after PGE2 injection.
Test Method 1 Data Analysis—The temperature that produced a half-maximal increase in the tail-withdrawal latency (i.e., T10) was calculated from each temperature-effect curve. The T10 was determined by interpolation from a line drawn between the point above and the point below 10 sec on the temperature-effect curve. For these studies, thermal hypersensitivity was defined as a leftward shift in the temperature-effect curve and a decrease in the T10 value. Reversal of thermal hypersensitivity was defined as a return to baseline of the temperature-effect curve and the T10 value and was calculated according to the following equation:
[formula] in which T10^drug+PGE2 is the T10 after a drug in combination with PGE2, T10^PGE2 is the T10 after PGE2 alone, and T10^baseline is the T10 under control conditions. A % MPE value of 100 indicates a complete return to the baseline thermal sensitivity observed without the PGE2 injection. […] Test Method 2: Chronic Constriction Injury

Spraque-Dawley rats [4] = assay: Chronic Constriction Injury-induced tactile hypersensitivity (von Frey); assay type: in vivo, rat; conditions: for % Reversal of CCl-induced tactile hypersensitivity: IP, one week after CCl surgery; for reversal of CCl-induced tactile hypersensitivity (in words): up to doses that produced observable signs of sedation and ataxia
Description: Rats were anesthetized with 3.5% halothane in O2 at 1 L/min and maintained with 1.5% halothane in O2 during surgery. A modified chronic sciatic nerve constriction injury (Mosconi & Kruger, 1996; Bennett & Xie, 1988) was produced by a cutaneous incision and a blunt dissection through the biceps femoris to expose the sciatic nerve. A PE 90 Polyethylene tubing (Intramedic, Clay Adams; Becton Dickinson Co.) cuff (2 mm length) was placed around the sciatic nerve at the level of the mid-thigh. The wound was closed in layers using 4-0 silk suture and wound clips. Testing was conducted 6-10 days after surgery.
Animals were placed in elevated wire cages and allowed 45-60 minutes to acclimate to the testing room. Baseline tactile sensitivity was assessed using a series of calibrated von Frey monofilaments (Stoelting; Wood Dale, Ill.) 0-3 days before surgery. Von Frey monofilaments were applied to the mid-plantar hind paw in sequential ascending or descending order, as necessary, to hover as closely as possible to the threshold of responses. The threshold was indicated by the lowest force that evoked a brisk withdrawal response to the stimuli. Thus, a withdrawal response led to the presentation of the next lighter stimulus and the lack of a withdrawal response led to the presentation of the next stronger stimulus. Rats with baseline thresholds <10 g force were excluded from the study. […] Under cumulative dosing conditions, compounds were administered IP every 30 minutes with the cumulative dose increasing in ½ log unit increments. Tactile hypersensitivity was assessed 20-30 minutes following each drug administration.
Test Method 2 Data Analysis—The 50% threshold values (in gm force) estimated by the Dixon non-parametric test (Chaplan et al, 1994) was calculated and fifteen-grams of force was used as the maximal force. Dose-effect curves were generated for each experimental condition for each rat. Individual tactile hypersensitivity threshold values were averaged to provide a mean (±1 SEM). Reversal of tactile hypersensitivity was defined as a return to baseline tactile sensitivity and was calculated according to the following equation:
(§4) [formula] in which 50%^drug+CCl is the 50% value after compound in animals approximately one week after CCl surgery, 50%^CCl is the 50% value approximately one week after CCl surgery alone, and 50%^baseline is the 50% value before CCl surgery. Maximal effect of 100% reversal represents a return to the mean pre-operative threshold value for subjects in that experimental condition. Test Method 3: Scheduled-Controlled Responding.

[5] = tested on: cingulate and retrosplenial cortices of mice and rats; conditions: cited from earlier work
Spraque-Dawley rats [6] = assay: Observable signs of sedation and ataxia
[7] = tested on: rats trained to discriminate between saline and PCP; conditions: cited from earlier work
Spraque-Dawley rats [8] = assay: Scheduled-controlled responding (operant responding, food presentation); conditions: for Operant responding: response rate as a percent of control: IP; for rates of responding (in words): schedule of food presentation, Compound A IP or PO at doses that reversed hypersensitivity
Description: as §4
Rats were trained under a multiple-cycle procedure during experimental sessions conducted five days each week. Each training cycle consisted of a 1-min pretreatment period followed by a 10-min response period. During the pretreatment period, stimulus lights were not illuminated, and responding had no scheduled consequences. During the response period, the left or right stimulus lights were illuminated (counterbalanced among subjects), the response lever was extended and subjects could respond under a fixed ratio 30 schedule of food presentation. Training sessions consisted of 3 consecutive cycles. Testing sessions were identical to training sessions except that a single dose of drug was administered at the start of the first cycle.
Data analysis. Operant response rates from individual animals were averaged for the three cycles during test sessions and were converted to percent of control response rates using the average rate from the previous training day as the control value (i.e., average of three cycles). Data are presented as the mean (±1 SEM) response rate as a percent of control.

monkeys = conditions: cited from earlier work
[9] = IP, CCl-induced tactile hypersensitivity study
[10] = IP, PGE2-induced thermal hypersensitivity study

SMILES: CN1CC[C@]23c4c5ccc(O)c4O[C@H]2[C@@H](O)C=C[C@H]3[C@H]1C5 [Morphine, morphine]
- Change from Baseline (T10) (Spraque-Dawley rats [1]; morphine 5.6 mg/kg IP): +2.3
- Change from Baseline (T10) (Spraque-Dawley rats [2]; rat, in vivo): +0.3

SMILES: O=C(O)[C@H]1C[C@@H](CP(=O)(O)O)CCN1 (relative stereo) [CGS-19755, cis-4-phosphonomethyl-2-piperidine carboxylic acid]
- % MPE (reversal of PGE2-induced thermal hypersensitivity) (Spraque-Dawley rats [3]; IP, 3 mg/kg): 9%
- % MPE (reversal of PGE2-induced thermal hypersensitivity) (Spraque-Dawley rats [3]; IP, 10 mg/kg): 25%
- % MPE (reversal of PGE2-induced thermal hypersensitivity) (Spraque-Dawley rats [3]; IP, 30 mg/kg): 9%
- % Reversal of CCl-induced tactile hypersensitivity (Spraque-Dawley rats [4]; cumulative dose 3 mg/kg): −9%
- % Reversal of CCl-induced tactile hypersensitivity (Spraque-Dawley rats [4]; cumulative dose 10 mg/kg): −5%
- % Reversal of CCl-induced tactile hypersensitivity (Spraque-Dawley rats [4]; cumulative dose 30 mg/kg): −17%
- reversal of CCl-induced tactile hypersensitivity (in words) (Spraque-Dawley rats [4]): none of the comparative compounds produced any reversal
- vacuolization (in words) ([5]; cingulate and retrosplenial cortices of mice and rats): caused vacuolization at behaviorally effective doses
- effectiveness/vacuolization ratio ([5]; mice and rats, behaviorly effective doses): 1
- doses that produced observable signs of sedation and ataxia (Spraque-Dawley rats [6]; [9]): < 30 mg/kg

SMILES: O=c1c2c(c1=O)N(Cc1nnn[nH]1)CCCN2 [Compound B, 2-[(1H-Tetrazol-5-yl)methyl]-2,6-diazabicyclo[5.2.0]-non-1-(7)-ene-8,9-dione]
- % MPE (reversal of PGE2-induced thermal hypersensitivity) (Spraque-Dawley rats [3]; PO, 3 mg/kg): 16%
- % MPE (reversal of PGE2-induced thermal hypersensitivity) (Spraque-Dawley rats [3]; PO, 10 mg/kg): 92%
- % MPE (reversal of PGE2-induced thermal hypersensitivity) (Spraque-Dawley rats [3]; PO, 30 mg/kg): 101%
- reversal of PGE2-induced thermal hypersensitivity (in words) (Spraque-Dawley rats [3]; rat, in vivo): full reversal
- % Reversal of CCl-induced tactile hypersensitivity (Spraque-Dawley rats [4]; cumulative dose 1 mg/kg): 13%
- % Reversal of CCl-induced tactile hypersensitivity (Spraque-Dawley rats [4]; cumulative dose 3 mg/kg): 14%
- % Reversal of CCl-induced tactile hypersensitivity (Spraque-Dawley rats [4]; cumulative dose 10 mg/kg, 10 mg/kg): 40%
- % Reversal of CCl-induced tactile hypersensitivity (Spraque-Dawley rats [4]; cumulative dose 30 mg/kg): 12%
- sedation or ataxia (Spraque-Dawley rats [6]; doses used in the CCl-induced tactile hypersensitivity study, IP): not associated with sedation or ataxia

SMILES: CC(C(O)c1ccc(O)cc1)N1CCC(Cc2ccccc2)CC1 (centres unmarked) [ifenfrodil, ifenprodil]
- % MPE (reversal of PGE2-induced thermal hypersensitivity) (Spraque-Dawley rats [3]; IP, 10 mg/kg): 1%
- % MPE (reversal of PGE2-induced thermal hypersensitivity) (Spraque-Dawley rats [3]; IP, 30 mg/kg): 14%

SMILES: CNC1(c2ccccc2Cl)CCCCC1=O (centres unmarked) [ketamine]
- % MPE (reversal of PGE2-induced thermal hypersensitivity) (Spraque-Dawley rats [3]; IP, 10 mg/kg): 14%
- % MPE (reversal of PGE2-induced thermal hypersensitivity) (Spraque-Dawley rats [3]; IP, 18 mg/kg): 9%
- Change from Baseline (T10) (Spraque-Dawley rats [1]; 18.0 mg/kg IP): −0.3
- Change from Baseline (T10) (Spraque-Dawley rats [2]; 18.0 mg/kg IP with PGE2, PGE2 + vehicle −5.6): −5.5
- substitution for the PCP-like discriminative stimulus effects [7]: substitute for the PCP-like discriminative stimulus effects

SMILES: CC12CC3CC(C)(C1)CC(N)(C3)C2 [memantine]
- % MPE (reversal of PGE2-induced thermal hypersensitivity) (Spraque-Dawley rats [3]; IP, 3 mg/kg): 13%
- % MPE (reversal of PGE2-induced thermal hypersensitivity) (Spraque-Dawley rats [3]; IP, 10 mg/kg): 15%
- % MPE (reversal of PGE2-induced thermal hypersensitivity) (Spraque-Dawley rats [3]; PO, 10 mg/kg): −1%
- % MPE (reversal of PGE2-induced thermal hypersensitivity) (Spraque-Dawley rats [3]; PO, 30 mg/kg): 11%
- % MPE (reversal of PGE2-induced thermal hypersensitivity) (Spraque-Dawley rats [3]; PO, 100 mg/kg): 5%
- % Reversal of CCl-induced tactile hypersensitivity (Spraque-Dawley rats [4]; cumulative dose 3 mg/kg): −25%
- % Reversal of CCl-induced tactile hypersensitivity (Spraque-Dawley rats [4]; cumulative dose 10 mg/kg): −45%
- reversal of CCl-induced tactile hypersensitivity (in words) (Spraque-Dawley rats [4]): none of the comparative compounds produced any reversal
- Operant responding: response rate as a percent of control (Spraque-Dawley rats [8]; 3 mg/kg): 93%
- Operant responding: response rate as a percent of control (Spraque-Dawley rats [8]; 10 mg/kg): 2%
- rates of responding (in words) (Spraque-Dawley rats [8]): dose-dependently decreased rates of responding
- self-administration (monkeys): maintains self-administration
- substitution for the PCP-like discriminative stimulus effects [7]: substitute for the PCP-like discriminative stimulus effects
- doses that produced observable signs of sedation and ataxia (Spraque-Dawley rats [6]; [9]): < 10 mg/kg
- doses that produced observable signs of sedation and ataxia (Spraque-Dawley rats [6]; [10]): < 10 mg/kg
- doses that produced observable signs of sedation and ataxia (Spraque-Dawley rats [6]; PO, PGE2-induced thermal hypersensitivity study): < 100 mg/kg

SMILES: C[C@]12N[C@H](Cc3ccccc31)c1ccccc12 [dizocilpine]
- % MPE (reversal of PGE2-induced thermal hypersensitivity) (Spraque-Dawley rats [3]; IP, 0.3 mg/kg): 18%
- Operant responding: response rate as a percent of control (Spraque-Dawley rats [8]; 0.1 mg/kg): 63%
- Operant responding: response rate as a percent of control (Spraque-Dawley rats [8]; 0.3 mg/kg): 16%
- rates of responding (in words) (Spraque-Dawley rats [8]): dose-dependently decreased rates of responding
- substitution for the PCP-like discriminative stimulus effects [7]: substitute for the PCP-like discriminative stimulus effects
- doses that produced observable signs of sedation and ataxia (Spraque-Dawley rats [6]; [10]): < 0.3 mg/kg
